# Results reported in US20060009493A1, “Indolinone hydrazides as c-Met inhibitors” (Sugen, Inc., priority 2003, published 2006).
# pIC50: −log10 of the molar value.
# Biological target: T1, GST fusion protein containing the Met kinase domain (Homo sapiens, UniProt P08581)
# T1 construct: Purified GST fusion protein containing the Met kinase domain, Sugen, Inc
# Experiment: MET Transphosphorylation Assay (ELISA, poly(Glu,Tyr) 4:1 substrate)
# Type: biochemical
# Details: met transphosphorylation of poly(glutamic acid:tyrosine 4:1) substrate; two values in a cell separated by '/'
# Procedure: MET Transphosphorylation Assay
# This assay is used to measure phosphotyrosine levels on a poly(glutamic acid:tyrosine (4:1)) substrate as a means for identifying agonists/antagonists of met transphosphorylation of the substrate.
# • 1. […] PBS, Gibco Catalog # 450-1300EB • 4. 50 mM HEPES • 5. […] Purified GST fusion protein containing the Met kinase domain, Sugen, Inc. • 7. TBST Buffer. • 8. 10% aqueous (MilliQue H2O) DMSO. • 9. […] 2× Kinase Dilution Buffer: for 100 ml, mix 10 mL 1M HEPES at pH 7.5 with 0.4 mL 5% BSA/PBS, 0.2 mL 0.1 M sodium orthovanadate and 1 mL 5M sodium chloride in 88.4 mL dH2O. • 11. 4×ATP Reaction Mixture: for 10 mL, mix 0.4 mL 1 M manganese chloride and 0.02 mL 0.1 M ATP in […] dH2O. • 12. 4× Negative Controls Mixture: for 10 mL, mix 0.4 mL 1 M manganese chloride in 9.6 mL dH2O.
# 13. […] 500 mM EDTA. • 15. Antibody Dilution Buffer: for 100 mL, mix 10 mL 5% BSA/PBS, 0.5 mL 5% Carnation Instant Milk® in PBS and 0.1 mL 0.1 M sodium orthovanadate in 88.4 mL TBST. • 16. Rabbit polyclonal antophosphotyrosine antibody, Sugen, Inc. • 17. Goat anti-rabbit horseradish peroxidase conjugated antibody, Biosource, Inc. • 18. ABTS Solution: for 1 L, mix 19.21 g citric acid, 35.49 g Na2HPO4 and 500 mg ABTS with sufficient dH2O to make 1 L. • 19. ABTS/H2O2: mix 15 mL ABST solution with 2 μL H2O2 five minutes before use. • 20. 0.2 M HCl Procedure: • 1. Coat ELISA plates with 2 μg Poly(Glu-Tyr) in 100 μL PBS, store overnight at 4° C. • 2. Block plate with 150 μL of 5% BSA/PBS for 60 min. • 3. Wash plate twice with PBS, once with 50 mM Hepes buffer pH 7.4. • 4. Add 50 μl of the diluted kinase to all wells. (Purified kinase is diluted with Kinase Dilution Buffer. Final concentration should be 10 ng/well.) • 5. Add 25 μL of the test compound (in 4% DMSO) or DMSO alone (4% in dH2O) for controls to plate. • 6. Incubate the kinase/compound mixture for 15 minutes. • 7. Add 25 μL of 40 mM MnCl2 to the negative control wells. • 8. Add 25 μL ATP/MnCl2 mixture to the all other wells (except the negative controls). Incubate for 5 min. • 9. Add 25 μL 500 mM EDTA to stop reaction. • 10. Wash plate 3× with TBST. • 11. Add 100 μL rabbit polyclonal anti-Ptyr diluted 1:10,000 in Antibody Dilution Buffer to each well. Incubate, with shaking, at room temperature for one hour. • 12. Wash plate 3× with TBST. • 13. […] Add 100 μL per well and incubate at room temperature, with shaking, for one hour. • 14. Wash plate 1× with PBS. • 15. Add 100 μl of ABTS/H2O2 solution to each well. • 16. If necessary, stop the development reaction with the addition of […] of 0.2M HCl per well. • 17.
# T1 sequence (P08581 1078-1345 limits assumed): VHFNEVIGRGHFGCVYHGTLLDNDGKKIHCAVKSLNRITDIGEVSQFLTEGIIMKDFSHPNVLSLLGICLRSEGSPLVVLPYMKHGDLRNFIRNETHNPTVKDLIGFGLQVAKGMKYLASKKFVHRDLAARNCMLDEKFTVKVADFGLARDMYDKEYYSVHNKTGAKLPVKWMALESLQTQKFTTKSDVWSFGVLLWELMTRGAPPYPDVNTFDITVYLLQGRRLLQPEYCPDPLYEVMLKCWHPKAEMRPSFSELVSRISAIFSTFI
row,SMILES,pIC50
1,"O=C(Cc1cc(=O)[nH]c(=O)[nH]1)N/N=C1\C(=O)Nc2c(Cl)ccc(Cl)c21 [II-82, (2,6-Dioxo-1,2,3,6-tetrahydro-pyrimidin-4-yl)-acetic acid [(3Z)-4,7-dichloro-2-oxo-1,2-dihydro-indol-3-ylidene]-hydrazide]",< 4.70
2,"O=C(Cc1ccc(F)cc1)N/N=C1\C(=O)Nc2c(Cl)ccc(Cl)c21 [II-67, (4-Fluoro-phenyl)-acetic acid [(3Z)-4,7-dichloro-2-oxo-1,2-dihydro-indol-3-ylidene)-hydrazide]",7.70
3,"O=C(Cc1ccc(O)cc1)N/N=C1\C(=O)Nc2ccc(OC(F)(F)F)cc21 [Example I-17, (4-Hydroxy-phenyl)-acetic acid [(3Z)-2-oxo-5-trifluoromethoxy-1,2-dihydro-indol-3-ylidene]-hydrazide]",7.24
4,"COc1cc(CC(=O)N/N=C2\C(=O)Nc3c(Cl)ccc(Cl)c32)cc(OC)c1O [II-100, (4-Hydroxy-3,5-dimethoxy-phenyl)-acetic acid [(3Z)-4,7-dichloro-2-oxo-1,2-dihydro-indol-3-ylidene)-hydrazide]",< 4.70
5,"Cc1ccc2c(c1Br)/C(=N/NC(=O)Cc1ccc(O)cc1)C(=O)N2 [II-53, (4-Hydroxy-phenyl)-acetic acid [3Z)-(4-bromo-5-methyl-2-oxo-1,2-dihydro-indol-3-ylidene]-hydrazide]",7.64
6,"Cc1ccc(Cl)c2c1NC(=O)/C2=N\NC(=O)C(C)c1ccc(F)cc1 (centres unmarked) [II-114, 2-(4-Fluoro-phenyl)-propionic acid [(3Z)4-chloro-7-methyl-2-oxo-1,2-dihydro-indol-3-ylidene]-hydrazide]",6.70
7,"O=C(Cc1ccc(O)nc1)N/N=C1\C(=O)Nc2c(Cl)ccc(Cl)c21 [II-56, (6-Hydroxy-pyridin-3-yl)-acetic acid [(3Z)-4,7-dichloro-2-oxo-1,2-dihydro-indol-3-ylidene]-hydrazide]",7.68
8,O=C(Cc1ccc(OCCN2CCCC2)cc1)N/N=C1\C(=O)Nc2ccccc21 [Example I-1],4.98
9,"O=C(Cc1ccccc1)N/N=C1\C(=O)Nc2c(Cl)ccc(Cl)c21 [II-75, Phenyl-acetic acid [(3Z)-4,7-dichloro-2-oxo-1,2-dihydro-indol-3-ylidene]-hydrazide]",7.05
10,"O=C1Nc2ccccc2/C1=N/NC(=O)C1(c2ccccc2)CC1 [Example I-6, 1-Phenyl-cyclopropanecarboxylic acid [(3Z)-2-oxo-1,2-dihydro-indol-3-ylidene]-hydrazide]",< 4.70
11,"COc1cc(CC(=O)N/N=C2\C(=O)Nc3ccccc32)ccc1O [II-40, (4-Hydroxy-3-methoxy-phenyl)-acetic acid [(3Z)-2-oxo-1,2-dihydro-indol-3-ylidene]-hydrazide]",6.62
12,"Cn1cc(CC(=O)N/N=C2\C(=O)Nc3c(Cl)ccc(Cl)c32)ccc1=O [II-59, (1-Methyl-6-oxo-1,6-dihydro-pyridin-3-yl)-acetic acid [(3Z)-4,7-dichloro-2-oxo-1,2-dihydro-indol-3-ylidene]-hydrazide]",7.35
13,"CCN(CC)CCc1cc(C)c2c(c1C)/C(=N/NC(=O)C(C)c1ccc(F)cc1)C(=O)N2 (centres unmarked) [Example I-63, 2-(4-Fluoro-phenyl)-propionic acid [(3Z)-5-(2-diethylamino-ethyl)-4,7-dimethyl-2-oxo-1,2-dihydro-indol-3-ylidene]-hydrazide]",5.98
14,"O=C(Cc1ccc(O)c(F)c1)N/N=C1\C(=O)Nc2c(Cl)ccc(Cl)c21 [II-55, (3-Fluoro-4-hydroxy-phenyl)-acetic acid [(3Z)-4,7-dichloro-2-oxo-1,2-dihydro-indol-3-ylidene]-hydrazide]",> 8.05
15,"O=C(Cn1ccc(=O)[nH]c1=O)N/N=C1\C(=O)Nc2c(Cl)ccc(Cl)c21 [II-72, (2,4-Dioxo-3,4-dihydro-2H-pyrimidin-1-yl)-acetic acid [(3Z)-4,7-dichloro-2-oxo-1,2-dihydro-indol-3-ylidene]-hydrazide]",< 4.70
16,"O=C(Cc1ccccc1)N/N=C1\C(=O)Nc2ccccc21 [II-6, Phenyl-acetic acid [(3E)-2-oxo-1,2-dihydro-indol-3-ylidene]-hydrazide]",< 4.70
17,"CC(C)(C(=O)N/N=C1\C(=O)Nc2ccc(C(=O)O)c(Cl)c21)c1ccc(Cl)cc1 [II-92, (3Z)-4-Chloro-3-{[2-(4-chloro-phenyl)-2-methyl-propionyl]-hydrazono}-2-oxo-2,3-dihydro-1H-indole-5-carboxylic acid]",< 4.70
18,"CC(C(=O)N/N=C1\C(=O)Nc2ccc(C(=O)NCCN3CCOCC3)c(Cl)c21)c1ccc(F)cc1 (centres unmarked) [Example I-39, (3Z)-4-Chloro-3-{[2-(4-fluoro-phenyl)-propionyl]-hydrazono}-2-oxo-2,3-dihydro-1H-indole-5-carboxylic acid (2-morpholin-4-yl-ethyl)-amide]",6.96
19,"O=C(Cc1ccc(O)cc1)N/N=C1\C(=O)Nc2ccc(S(=O)(=O)NCCN3CCOCC3)cc21 [Example I-26, (3Z)-3-{[2-(4-Hydroxy-phenyl)-acetyl]-hydrazono}-2-oxo-2,3-dihydro-1H-indole-5-sulfonic acid (2-morpholin-4-yl-ethyl)-amide]",7.11
20,"O=C(CCc1ccc(O)cc1)N/N=C1\C(=O)Nc2c(Cl)ccc(Cl)c21 [II-76, 3-(4-Hydroxy-phenyl)-propionic acid [(3Z)-4,7-dichloro-2-oxo-1,2-dihydro-indol-3-ylidene]-hydrazide]",7.34
21,"COc1c(O)c2c(c(Cl)c1Cl)NC(=O)/C2=N\NC(=O)Cc1ccc(O)cc1 [II-97, (4-Hydroxy-phenyl)-acetic acid [(3Z)-6,7-dichloro-4-hydroxy-5-methoxy-2-oxo-1,2-dihydro-indol-3-ylidene]-hydrazide]",6.49
22,"CC(C(=O)N/N=C1\C(=O)Nc2ccc(C(=O)N3CCC(NC4CC4)CC3)c(Cl)c21)c1ccc(O)cc1 (centres unmarked) [Example I-33, 2-(4-Hydroxy-phenyl)-propionic acid [(3Z)-4-chloro-5-(4-cyclopropylamino-piperidine-1-carbonyl)-2-oxo-1,2-dihydro-indol-3-ylidene]-hydrazide]",7.07
23,"O=C(Cc1ccc2c(c1)OCO2)N/N=C1\C(=O)Nc2ccc(Br)cc21 [Example I-22, Benzo[1,3]dioxol-5-yl-acetic acid [(3Z)-5-bromo-2-oxo-1,2-dihydro-indol-3-ylidene]-hydrazide]",6.60
24,O=C(Cc1ccc(O)c(Cl)c1)N/N=C1\C(=O)Nc2ccccc21 [II-42],7.44
25,"O=C(Cc1ccc2c(c1)OCO2)N/N=C1\C(=O)Nc2ccc(S(=O)(=O)NCCN3CCOCC3)cc21 [Example I-31, (3Z)-3-[(2-Benzo[1,3]dioxol-5-yl-acetyl)-hydrazono]-2-oxo-2,3-dihydro-1H-indole-5-sulfonic acid (2-morpholin-4-yl-ethyl)-amide]",6.49
26,"Cc1ccc(C)c2c1NC(=O)/C2=N\NC(=O)CCc1ccc(N)cc1 [II-93, 3-(4-Amino-phenyl)-propionic acid [(3Z)-4,7-dimethyl-2-oxo-1,2-dihydro-indol-3-ylidene]-hydrazide]",< 4.70
27,"CC(=O)Nc1ccc(CC(=O)N/N=C2\C(=O)Nc3ccccc32)cc1 [Example I-4, N-[4-[(3Z)-2-Oxo-1,2-dihydro-indol-3-ylidene-hydrazinocarbonylmethyl]-phenyl]-acetamide]",< 4.70
28,"O=C(Cc1ccc(Br)cc1)N/N=C1\C(=O)Nc2ccccc21 [II-34, (4-Bromo-phenyl)-acetic acid [(3Z)-2-oxo-1,2-dihydro-indol-3-ylidene]-hydrazide]",< 4.70
29,"O=C(Cc1cc(O)[nH]n1)N/N=C1\C(=O)Nc2c(Cl)ccc(Cl)c21 [II-87, (5-Hydroxy-1H-pyrazol-3-yl)-acetic acid [(3Z)-4,7-dichloro-2-oxo-1,2-dihydro-indol-3-ylidene]-hydrazide]",6.20
